From patent publication US20160130352A1, “RHAMM, A CO-RECEPTOR AND ITS INTERACTIONS WITH OTHER RECEPTORS IN CANCER CELL MOTILITY AND THE IDENTIFICATION OF CANCER PROGNITOR CELL POPULATIONS” (THE REGENTS OF THE UNIVERSITY OF CALIFORNIA, priority 2006, published 2016) come the findings set out here.

In one series the test system is MCF7 cells. Nature of the series: Time-lapse cinemicrography random motility. Particulars: for motility: peptide 1 μg/ml, 30 minutes prior to filming. In kind it is cell-based, human. How it is done:
Random motility analyses were performed to quantify the effect of the blocking Rhamm and CD44 antibodies, HA binding peptide, hyaluronan, and the MEK inhibitor, PD098059 on cell motility. Cells were seeded on T-25 flasks (Costar, Cambridge. Mass.) at 1×10^5 cells/flask. Cells were incubated with anti-Rhamm antibody (30 μg/ml), anti-CD44 antibody (30 μg/ml), a mixture of anti-Rhamm (30 μg/ml) and anti-CD44 antibodies ([…]), HA binding peptide (1 μg/ml) or its scrambled control (1 μg/ml), and/or 50 μM PD098059 for 30 minutes prior to filming. […] As a control, a mixture of mouse and rabbit IgG (30 μg/ml each), DMSO (for PD098059) or PBS (for HA) were used. Cell locomotion was monitored for a period of 6 hours using a 10× modulation objective (Zeiss, Germany) attached to a Zeiss Axiovert 100 inverted microscope equipped with Hoffman Modulation contrast optical filters (Greenvale, N.Y.) and a 37° C. heated stage. Cell images were captured with a CCD video camera module attached to a Hamamatsu CCD camera controller. Motility was assessed using Northern Exposure 2.9 image analysis software (Empix Imaging, Mississauga, Ontario). Nuclear displacement of 20-30 cells was measured and data were subjected to statistical analysis (see below). Each experiment was repeated at least three times. PD098059 MEK inhibitor was used to test the involvement of the MAP kinase pathway in the motility of these cells. The cells were incubated with the MEK1 inhibitor at 50 μM in complete culture medium 30 minutes before the beginning of motility filming. DMSO alone was used as a control. The results of motility analyses were expressed as means (μm/hour) means±standard deviations, unless otherwise indicated.

In a further series the test system is MDA-MB-231 cells. Nature of the series: Time-lapse cinemicrography random motility. It is filed as cell-based, human. As to the method:
Random motility analyses were performed to quantify the effect of the blocking Rhamm and CD44 antibodies, HA binding peptide, hyaluronan, and the MEK inhibitor, PD098059 on cell motility. Cells were seeded on T-25 flasks (Costar, Cambridge. Mass.) at 1×10^5 cells/flask. Cells were incubated with anti-Rhamm antibody (30 μg/ml), anti-CD44 antibody (30 μg/ml), a mixture of anti-Rhamm (30 μg/ml) and anti-CD44 antibodies ([…]), HA binding peptide (1 μg/ml) or its scrambled control (1 μg/ml), and/or 50 μM PD098059 for 30 minutes prior to filming. Alternatively, cells were stimulated with […] of HA immediately prior to filming. As a control, a mixture of mouse and rabbit IgG (30 μg/ml each), DMSO (for PD098059) or PBS (for HA) were used. Cell locomotion was monitored for a period of 6 hours using a 10× modulation objective (Zeiss, Germany) attached to a Zeiss Axiovert 100 inverted microscope equipped with Hoffman Modulation contrast optical filters (Greenvale, N.Y.) and a 37° C. heated stage. Cell images were captured with a CCD video camera module attached to a Hamamatsu CCD camera controller. Motility was assessed using Northern Exposure 2.9 image analysis software (Empix Imaging, Mississauga, Ontario). Nuclear displacement of 20-30 cells was measured and data were subjected to statistical analysis (see below). Each experiment was repeated at least three times. PD098059 MEK inhibitor was used to test the involvement of the MAP kinase pathway in the motility of these cells. The cells were incubated with the MEK1 inhibitor at 50 μM in complete culture medium 30 minutes before the beginning of motility filming. DMSO alone was used as a control. The results of motility analyses were expressed as means (μm/hour) means±standard deviations, unless otherwise indicated.

A short description of series [1]: Pharmacokinetic parameters of HA in serum by route of administration (competitive binding ELISA). In kind it is in vivo. The text has this:
Table 2 below is a summary of the kinetic analysis of HA in serum by different routes of administration.
(ELISA stands for enzyme-linked immunosorbent assay.)

A short description of series [2]: Kinetics and tolerability of HA injected I.V. in rats. The settings on record: I.V. 1-12 mg/kg. It is filed as in vivo.
On the set-up of series [3]: species or system humans. Particulars: human, in vivo, iv.
On the set-up of series [4]: species or system mice. The settings on record: mouse, in vivo, iv. The text has this: J Am Chem Soc. 125(25): p. 7494-5, hereby incorporated by reference), MDA-MB-231 breast tumor xenografts which express high levels of Rhamm and CD44 (FIG. 2A) and the liver, whose endothelial cells express the HA endocytic receptor, Hare (See FIG. 13D and Weigel, P. H. and J. H. Yik, 2002. Glycans as endocytosis signals: the cases of the asialoglycoprotein and hyaluronan/chondroitin sulfate receptors. Biochim Biophys Acta. 1572(2-3): p. 341-63).

Where [5] appears, read: peptide 1 μg/ml, 30 minutes prior to filming.
Setting [6] is: serum starved 24-48 hours, 25-50 μg/ml exogenous HA.
The mark [7] stands for this setting: PD098059 50 μM and/or anti-Rhamm antibodies.

Where two headings read alike, the source gives them in different places.

Regarding YKQKIKHVVKLK [HA-binding peptide], the motility entry in the series with MCF7 cells is “no effect”; with MDA-MB-231 cells (setting [5]), “significantly reduced motility”.

Turning to Hyaluronan [HA], the motility rate result with MCF7 cells (setting [6]) is “no effect”. The Cmax (as a rule, the peak of the concentration-time curve) in series [1] (Intravenous) was 5096.00 µg/mL; in series [1] (Oral) it was 0.15 µg/mL; in series [1] (Subcutaneous), 1454.00 µg/mL. For the same compound, the Tmax (in general, the time from dosing to the highest level) in series [1] (Intravenous) worked out at 12 h; in series [1] (Oral) it was 36 h; in series [1] (Subcutaneous), 72 h. Also, in series [2], the tolerability result is reported as “well tolerated”. Besides, the half-life entry in series [3] and in series [4] was “up to 12 hrs” each time. Also, in series [3] (1.5 mg/kg), the “T1/2 (HA serum levels)” value was found to be 12 h. The motility entry with MDA-MB-231 cells (setting [6]) was “significantly stimulated motility”.

As for `COc1cccc(-c2cc(=O)c3ccccc3o2)c1N` [PD098059], the basal motility entry in the series with MCF7 cells (setting [7]) is listed as “no effect”. Also, the basal motility rate entry in the series on MDA-MB-231 cells (setting [7]) is “significantly inhibited”.

As to “YLKQKKVKKHIV [scrambled control peptide]”, the motility entry in the series on MCF7 cells and in the series with MDA-MB-231 cells (setting [5]) was “no effect” throughout.
